# Where two headings read alike, the source gives them in different places.
# What was measured:
# Format in all cases: in vivo
# DBA/2 mice = assay: DBA2 mouse model of anticonvulsant efficacy (sound-induced seizures); parameters: Anticonvulsant % Protect 2 br / Anticonvulsant % Protect 1hr: concentration or dose not given beside the values; conditions: for responders at 30 mg/kg: Mus musculus; for Anticonvulsant % Protect 2 br / Anticonvulsant % Protect 1hr: Table 1
# [1] = Anxiolytic activity relative to pregabalin (test model not specified); conditions: 30 mg/kg PO; percent of pregabalin activity
# Male Sprague-Dawley rats = assay: Carrageenin-induced hyperalgesia, rat paw pressure test; conditions: dosed orally at 30 mg/kg
# Experimental: Male Sprague-Dawley rats (70-90 g) were trained on this apparatus before the test day. Pressure was gradually applied to the hind paw of each rat and nociceptive thresholds were determined as the pressure (g) required to elicit paw withdrawal. […] On the test day, two to three baseline measurements were taken before animals were administered 100 µL of 2% carrageenin by intraplantar injection into the right hind paw.
# [2] = 30 mg/kg PO, 1h, read-out: Anticonvulsant % Protect* 1h
# [3] = 30 mg/kg PO, 2h, read-out: Anticonvulsant % Protect* 2h
Structure (SMILES),responders at 30 mg/kg (DBA/2 mice; [2]),responders at 30 mg/kg (DBA/2 mice; [3]),Anxiolytic Activity* % Preg. Act. [1],further results
"CCCCC(C(C)C)C(CN)CC(=O)O (stereo not drawn) [3-aminomethyl-4-isopropyl-octanoic acid, 3-Aminomethyl-4-isopropyl-octanoic acid]",0%,0%,–,–
"CC(C)[C@@H](C)[C@@H](CN)CC(=O)O [(3S,4R)3-Aminomethyl-4,5-dimethyl-hexanoic acid]",–,–,12%,"Anticonvulsant % Protect* 1h (DBA/2 mice; 30 mg/kg PO, 1h): 20%; Anticonvulsant % Protect* 2h (DBA/2 mice; 30 mg/kg PO, 2h): 20%"
CCC(C)CC(CN)CC(=O)O (stereo not drawn),–,–,–,Anticonvulsant % Protect 2 br (DBA/2 mice): 100%; Anticonvulsant % Protect 1hr (DBA/2 mice): 60%
C=CCC(C)CC(CN)CC(=O)O (stereo not drawn) [3-Aminomethyl-5-methyl-oct-7-enoic acid],0%,0%,–,–
"CCCCC[C@@H](C)C[C@H](CN)CC(=O)O [(3S,5R)-3-Aminomethyl-5-methyl-decanoic acid]",100%,100%,105.59%,–
"CC[C@@H](C)C[C@H](CN)CC(=O)O [(3S,5R)-3-Aminomethyl-5-methyl-heptanoic acid]",–,–,–,"Anticonvulsant % Protect* 2h (DBA/2 mice; 30 mg/kg PO, 2h): 100%"
CC(Cc1ccccc1)CC(CN)CC(=O)O (stereo not drawn) [3-Aminomethyl-5-methyl-6-phenyl-hexanoic acid],0%,0%,–,–
CC[C@@H](C)[C@H](CN)CC(=O)O,–,–,–,Anticonvulsant % Protect 2 br (DBA/2 mice): 0%; Anticonvulsant % Protect 1hr (DBA/2 mice): 0%
"CC(C)C[C@H](CN)CC(=O)O [Pregabalin, (S)-3-(Aminomethyl)-5-methylhexanoic acid, reference compound]",–,100%,100%,–
CCC(CC)CC(CN)CC(=O)O (stereo not drawn),–,–,–,Anticonvulsant % Protect 2 br (DBA/2 mice): 20%; Anticonvulsant % Protect 1hr (DBA/2 mice): 0%
CCCC(C)C[C@H](CN)CC(=O)O (stereo partly drawn) [(S)-3-Aminomethyl-5-methyl-octanoic acid],100%,100%,135.38%,–
"CCC[C@H](C)C[C@H](CN)CC(=O)O [(3S,5S)-3-Aminomethyl-5-methyl-octanoic acid]",0%,20%,15.6%,–
CCC(C)CC(CN)CC(=O)O (racemic) [3-Aminomethyl-5-methylheptanoic acid],60%,100%,79%,–
"CCCCCC(C)CC(CN)CC(=O)O (stereo not drawn) [3-Aminomethyl-5-methyldecanoic acid, 3-Aminomethyl-5-methyl-decanoic acid]",0%,0%,–,–
"CCCC[C@@H](C)C[C@H](CN)CC(=O)O.Cl [(3S,5R)-3-Aminomethyl-5-methyl-nonanoic acid hydrochloride]",100%,100%,125.94%,–
CC(C)C(c1ccccc1)C(CN)CC(=O)O (stereo not drawn) [3-Aminomethyl-5-methyl-4-phenyl-hexanoic acid],0%,0%,–,–
"CCCCC[C@H](C)C[C@H](CN)CC(=O)O [(3S,5S)-3-Aminomethyl-5-methyl-decanoic acid]",0%,20%,–,–
"CCCC[C@H](C)C[C@H](CN)CC(=O)O [(3S, 5S)-3-Aminomethyl-5-methyl-nonanoic acid]",0%,0%,–,–
CC(C)[C@@H](C)C(CN)CC(=O)O (stereo partly drawn),–,–,–,Anticonvulsant % Protect 2 br (DBA/2 mice): 100%; Anticonvulsant % Protect 1hr (DBA/2 mice): 80%
"CCCCC(C)CC(CN)CC(=O)O (stereo not drawn) [3-Aminomethyl-5-methylnonanoic acid, 3-Aminomethyl-5-methyl-nonanoic acid]",40%,80%,–,–
Cl.O=C(O)[C@H]1CNCC12CCCCC2 [(R)-2-Aza-spiro[4.5]decane-4-carboxylic acid hydrochloride],–,–,–,percent of maximum possible effect (MPE) (Male Sprague-Dawley rats; 1 hour postdose): 53%; percent of maximum possible effect (MPE) (Male Sprague-Dawley rats; 2 hours postdose): 4.6%
CCC(CC)C(CN)CC(=O)O (stereo not drawn),–,–,–,Anticonvulsant % Protect 2 br (DBA/2 mice): 20%; Anticonvulsant % Protect 1hr (DBA/2 mice): 0%
"CC(CC(CN)CC(=O)O)C(F)(F)F (stereo not drawn) [3-Aminomethyl-6,6,6-trifluoro-5-methyl-hexanoic acid]",0%,0%,–,–
"CC(C)[C@H](C)[C@H](CN)CC(=O)O [(3R,4S)-3-Aminomethyl-4,5-dimethyl-hexanoic acid]",–,–,58%,–
"CCC[C@@H](C)C[C@H](CN)CC(=O)O.Cl [(3S,5R)-3-Aminomethyl-5-methyl-octanoic acid hydrochloride]",100%,100%,160%,–
CC(C)CC(CN)CC(=O)O (stereo not drawn) [reference compound],–,–,–,Anticonvulsant % Protect 2 br (DBA/2 mice): 100%
COCC(C)C[C@H](CN)CC(=O)O (stereo partly drawn) [(S)-3-Aminomethyl-6-methoxy-5-methyl-hexanoic acid],0%,0%,–,–
"CC(C)[C@@H](C)[C@H](CN)CC(=O)O [(3R,4R)-3-Aminomethyl-4,5-dimethyl-hexanoic acid]",–,–,204%,–
"CCC(C(C)C)C(CN)CC(=O)O (stereo not drawn) [3-aminomethyl-4-isopropyl-hexanoic acid, 3-Aminomethyl-4-isopropyl-hexanoic acid]",0%,0%,–,–
"CCCC(C)CC(CN)CC(=O)O (stereo not drawn) [3-Aminomethyl-5-methyloctanoic acid, 3-Aminomethyl-5-methyl-octanoic acid]",40%,100%,–,–

# — patent publication EP1192125B9, “MONO-SUBSTITUTED 3-PROPYL GAMMA-AM[…]” (Warner-Lambert Company LLC, priority 1999, dated 2000)
